Here are results for 22 molecules from PubChem BioAssay (NCI).

Common to all, as to test: NCI anticancer screen, dose series, 48 h
Experiment [1] deals with BT-549 breast.
Experiment [2] relates to SK-OV-3 ovarian.
Experiment [3] concerns OVCAR-5 ovarian.
In experiment [4] the test system is M14 melanoma.
For experiment [5], the system named is RXF 393 renal.
The test system of experiment [6] is HT29 colon.
Experiment [7] concerns MDA-N.
Experiment [8] deals with NCI-H226 lung.
In experiment [9] the test system is OVCAR-8 ovarian.
Experiment [10] concerns NCI-H460 lung.

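Briefly, cells in 96-well plates were exposed to five compound concentrations for 48 h, and endpoints were estimated by linear interpolation. TGI: concentration producing complete growth inhibition.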 Where a SMILES comes first, the peptide text is derived from it. [ ]: non-standard residue; d: D form. The star is where a group is joined. Phe(4-NO2) = N[CH](Cc1ccc([N+](=O)[O-])cc1)C(=O)O; Boc = CC(C)(C)OC(=O)*

Take `Cc1cc2c(c(C(=O)NCC(=O)O)c1)Oc1c(cc(C)cc1C(=O)NCC(=O)O)S2`: the TGI in experiment [1], in [2], in [3], in experiment [4], in experiment [5] and in experiment [6] was > 100 µM each time. Further, the TGI in [7], in experiment [8] and in experiment [9] was > 100 µM each time.
As to `O=c1cc(N2CCOCC2)n2c(ccc3ccccc32)n1`, the TGI in [1], in experiment [2], in experiment [3], in experiment [4], in experiment [5] and in experiment [6] was > 100 µM each time. Further, the TGI in [7] was 63 µM; in experiment [8], > 100 µM; in experiment [9], > 100 µM.
For `C/C(=C\Cc1ccc(F)cc1)CCCCCC/C(C)=C/Cc1ccc(F)cc1`, the TGI in experiment [1] stood at 79 µM; in experiment [2], 68.6 µM; in experiment [3], 37.9 µM; in [4], 45.6 µM; in experiment [5], 42.1 µM; in experiment [6], 33.3 µM. For the same molecule, the TGI came out at 34.2 µM in [7], 39.6 µM in experiment [9] and 17 µM in experiment [10].
In the case of `COc1c(C)c(C/C=C(\C)CCCC(C)CCCC(C)CCCC(C)C)c(OC)c2ccccc12` (configuration not stated), the TGI in [1], in [2], in [3], in experiment [4], in experiment [5] and in experiment [6] was > 100 µM throughout. For the same molecule, the TGI in experiment [7], in experiment [9] and in [10] was > 100 µM each time.
In the case of `C=CC(C)(C)/C=C/c1ccc(O)cc1`, the TGI in experiment [1], in [2], in experiment [3], in experiment [4], in experiment [5] and in [6] was > 100 µM in each case. For the same molecule, the TGI in experiment [7], in experiment [9] and in experiment [10] was > 100 µM in each case.
For `Cc1cc(S(=O)(=O)Nc2nc3cscc3c(=O)n2N)c(S)cc1Cl`, the TGI in experiment [1] is > 100 µM; in [2], > 100 µM; in experiment [3], 64 µM; in experiment [4] it was > 100 µM; in experiment [6], > 100 µM; in experiment [7] it was > 100 µM. Also, the TGI in [8] was 48.5 µM; in experiment [9], > 100 µM; in experiment [10], > 100 µM.
Regarding `O=C1Nc2cccc(Cl)c2/C1=C\c1c(-c2ccccc2)nc2n1CCS2`, the TGI in [1] came to 76.5 µM; in experiment [2] it was 65.9 µM; in experiment [3], 48.2 µM; in [4] it was 45.2 µM; in [5], 42.5 µM; in [6] it was 42.5 µM. Besides, the values for the TGI in [7], in experiment [9] and in [10] were 40.6 µM, 83.6 µM and 40.7 µM, respectively.
Take `O=CC(O)C(O)C(O)C(O)COC(=O)NCCCCC(=O)C(F)(F)C(F)(F)C(F)(F)C(F)(F)C(F)(F)C(F)(F)C(F)(F)F` (configuration not stated): the TGI in experiment [1] is 33.9 µM; in experiment [2], 56.4 µM; in experiment [3], 33.8 µM; in [4], 60.2 µM; in experiment [5], 62.4 µM; in experiment [6], > 100 µM. Further, the TGI in experiment [7] came out at 73.5 µM; in experiment [10], 67.6 µM.
As for `CN(C)C=N[C@@H](C(=O)O)c1ccccc1`, the TGI in experiment [1], in experiment [2], in [3], in experiment [4], in [6] and in [7] was > 100 µM throughout. In addition, the TGI in experiment [8], in experiment [9] and in [10] was > 100 µM each time.
Turning to `c1ccc2c(Nc3ncco3)cccc2c1`, the TGI in experiment [1], in experiment [2], in [3], in experiment [4], in experiment [6] and in [7] was > 10 µM each time. The TGI in experiment [8], in experiment [9] and in experiment [10] was > 10 µM in each case.
For `COc1ccc(-n2c(N)c(C#N)c(C#N)c2-c2ccco2)cc1`, the TGI in experiment [1], in experiment [2], in [3], in [4], in [5] and in [6] was > 100 µM in each case. Besides, the TGI in experiment [7], in [8] and in [9] was > 100 µM in each case.
For `O=Nc1c(-c2c(O)[nH]c3ccc(I)cc23)[nH]c2ccccc12`, the TGI in [1] was > 59.3 µM; in [2] it was > 35 µM; in experiment [3], > 27.1 µM; in experiment [4] it was > 100 µM; in experiment [5] it was 3.81 µM; in [6], > 21.6 µM. For the same molecule, the TGI is 47.2 µM in [7], > 43.4 µM in [9] and > 47.4 µM in [10].
Take `CC(CCc1nc2ccccc2s1)(c1ccc(O)cc1)c1ccc(O)cc1`: the TGI amounted to 39.7 µM in [1]; 33.1 µM in experiment [3]; 33.4 µM in experiment [4]; 33.2 µM in experiment [5]; 38.4 µM in [6]; 31.1 µM in experiment [7]. Besides, the results for the TGI in experiment [8], in [9] and in experiment [10] were 41.1 µM, 39.6 µM and 30 µM, respectively.
Regarding `Cc1nc2ccc(Cl)cc2c2c1CCO2`, the TGI in experiment [1] is > 100 µM; in [5] it was 71.3 µM; in experiment [6] it was > 100 µM; in [7], > 100 µM; in experiment [8] it was > 100 µM; in experiment [9], > 100 µM. The TGI in [10] is > 100 µM.
`Cc1ccc(-n2nncc2[Si](C)(C)C)s1`: the TGI in experiment [1], in [2], in [3], in experiment [4], in experiment [6] and in experiment [7] was > 100 µM in each case. The TGI in experiment [8], in [9] and in experiment [10] was > 100 µM each time.
As for `Cc1cc(C)c2c(c1)C/C(=C\c1cccc(C)c1C(=O)O)C2=O`, the TGI in experiment [1], in experiment [3], in [4], in experiment [5], in [6] and in experiment [7] was > 100 µM in each case. Moreover, the TGI in experiment [8], in experiment [9] and in experiment [10] was > 100 µM throughout.
In the case of `COC(=O)/C=C\n1nc(Br)c(=O)[nH]c1=O`, the TGI in [1], in experiment [3], in [4], in [5], in [6] and in [7] was > 100 µM in each case. Further, the TGI in experiment [9] and in experiment [10] was > 100 µM each time.
In the case of `[N-]=[N+]=Nc1nc2ccccc2c(N=[N+]=[N-])c1Cl`, the TGI in [1] was 89.6 µM; in experiment [2], > 100 µM; in experiment [3] it was > 100 µM; in experiment [4], > 100 µM; in experiment [5], > 100 µM; in [6], > 100 µM. Moreover, the TGI in [7] and in experiment [10] was > 100 µM throughout.
On to `O=C(O)CSC1=NNC2(C(=O)N1)c1ccccc1-c1ccccc12`, for which the TGI in [1], in experiment [2], in experiment [4], in experiment [5], in experiment [6] and in experiment [7] was > 10 µM in each case. The TGI in experiment [8], in experiment [9] and in experiment [10] was > 10 µM each time.
As for `CCOC(=O)CCC(NC(=O)C(Cc1ccc([N+](=O)[O-])cc1)NC(=O)OC(C)(C)C)C(=O)NC(CCC(=O)OCC)C(=O)OCC` (configuration not stated) (Boc-[Phe(4-NO2)]-Glu(OEt)-Glu(OEt)-OEt; configuration not given here), the TGI in experiment [1] came out at 45.1 µM; in experiment [3], 46.3 µM; in [4], 35.9 µM; in experiment [5] it was 30.2 µM; in experiment [6], 31.5 µM; in experiment [7], 52.6 µM. In addition, the TGI in experiment [8] came to 35.9 µM; in [9] it was 40.3 µM; in experiment [10] it was 57.3 µM.
On to `CCOC(=O)CCc1cn2cc(Br)nc(OC)c2n1`, for which the TGI in [1] is > 100 µM; in experiment [2], > 100 µM; in experiment [4], > 100 µM; in [5], > 100 µM; in experiment [6] it was > 100 µM; in experiment [7] it was 12.6 µM. Besides, the TGI in experiment [8], in experiment [9] and in experiment [10] was > 100 µM throughout.
Consider `COc1cccc2c1OC1c3ccccc3OCC1(O)C2` (configuration not stated), for which the TGI in experiment [1], in experiment [2], in experiment [3], in experiment [4], in experiment [6] and in experiment [7] was > 100 µM throughout. Moreover, the TGI in [8] and in experiment [9] was > 100 µM each time.
